Where a name gives a salt, the structure may show the parent alone. Read-outs that look alike come from different tables or passages of the source.
Target: T1, Human IP6K1 (Homo sapiens, UniProt Q92551)
T1 construct: GST (N, cleaved yes); made in house; host or cells: C43 E. coli, pGEX-6P-2
Test: IP6K1 high-throughput screen of the Sigma LOPAC (ADP-Glo Max, single point);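 also: final compound concentration 10µM in 5% DMSO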
Type: biochemical

[1] = LOPAC single-point screen, ADP-Glo Max raw signal per well
[2] = LOPAC single-point screen, Z-score against plate average and StDev
[3] = LOPAC single-point screen, ADP-Glo Max luminescence raw signal per well
[4] = LOPAC single-point screen, Z-score relative to plate average and StDev
[5] = LOPAC single-point screen, Z-score from raw signal with plate average and StDev
[6] = Sigma LOPAC single-point screen, ADP-Glo Max raw signal per well
[7] = Sigma LOPAC single-point screen, Z-score from plate average and StDev
[8] = LOPAC single-point screen, Z-score from plate average and StDev

T1 sequence (Q92551 whole entry): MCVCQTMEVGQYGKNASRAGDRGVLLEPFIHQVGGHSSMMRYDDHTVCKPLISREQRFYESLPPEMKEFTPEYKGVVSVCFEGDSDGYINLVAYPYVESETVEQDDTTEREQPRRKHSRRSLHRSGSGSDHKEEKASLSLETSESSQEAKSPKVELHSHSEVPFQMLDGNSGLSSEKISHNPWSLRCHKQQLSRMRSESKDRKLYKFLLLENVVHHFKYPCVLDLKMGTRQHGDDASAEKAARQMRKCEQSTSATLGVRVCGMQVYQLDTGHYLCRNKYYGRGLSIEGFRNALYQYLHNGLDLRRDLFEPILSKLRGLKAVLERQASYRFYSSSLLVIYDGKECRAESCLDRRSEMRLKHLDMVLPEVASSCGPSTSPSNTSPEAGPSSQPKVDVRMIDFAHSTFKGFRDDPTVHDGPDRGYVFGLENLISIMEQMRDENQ

CC1CN(S(=O)(=O)c2cccc3cnccc23)CCN1.Cl.Cl (centres unmarked)
Raw Signal [1]: 53944
Z-score [2]: -0.07553

C[N+]1(C)[C@@H]2CC[C@H]1C[C@@H](OC(=O)C(CO)c1ccccc1)C2 (some centres unmarked) [Atropine methyl bromide]
Raw Signal [3]: 52228
Z-score [4]: -1.0013

CC(C)(C)NCC(O)c1ccc(O)c(CO)c1 (centres unmarked) [Salbutamol]
Z-score [5]: -0.2712

CN(C)CCC(c1ccc(Cl)cc1)c1ccccn1.O=C(O)/C=C\C(=O)O (racemic) [(±)-Chlorpheniramine maleate]
Raw Signal [6]: 60371
Z-score [7]: 0.4329

C[N+]1(C)[C@@H]2CC[C@H]1C[C@@H](OC(=O)C(CO)c1ccccc1)C2 (some centres unmarked) [Atropine methyl nitrate]
Raw Signal [6]: 60117
Z-score [7]: 0.3882

CC(/C=C/c1cccc(Oc2ccc(F)cc2)c1)N(O)C(N)=O (centres unmarked) [BWB70C]
Raw Signal [1]: 58720
Z-score [2]: 0.1421

NCCNC(=O)Cc1ccc(NC(=O)Cc2ccc(Nc3ncnc4c3ncn4[C@@H]3O[C@H](CO)[C@@H](O)[C@H]3O)cc2)cc1 [Adenosine amine congener]
Raw Signal [1]: 58651
Z-score [2]: 0.13

Clc1cnc(Oc2ccc(Oc3ncc(Cl)cc3Cl)cc2)c(Cl)c1 [TCPOBOP]
Raw Signal [1]: 54822
Z-score [5]: -0.2335

C[C@]12C=CC(=O)C=C1CC[C@@H]1C2=CC[C@]2(C)[C@@H](C(=O)CN3CCN(c4cc(N5CCCC5)nc(N5CCCC5)n4)CC3)CC[C@@H]12.O=C(O)/C=C\C(=O)O [U-74389G maleate]
Raw Signal [3]: 52844
Z-score [4]: -0.6178

MDL 26,630 trihydrochloride
Raw Signal [1]: 53612
Z-score [5]: -0.1313

CC(C)[C@H](CO)Nc1nc(Nc2cccc(Cl)c2)c2ncn(C(C)C)c2n1 [Purvalanol A]
Raw Signal [1]: 54135
Z-score [2]: -0.04344

O=NN(CCCl)C(=O)NCCCl [Carmustine]
Raw Signal [3]: 54247
Z-score [4]: -0.6457

CC[C@H](CO)Nc1nc(NCc2ccccc2)c2ncn(C(C)C)c2n1 [Roscovitine]
Raw Signal [1]: 54754
Z-score [5]: -0.2467

O=C(O)/C=C1\CCCc2ccccc2C1O (centres unmarked) [NCS-382]
Raw Signal [3]: 49943
Z-score [4]: -0.7478

C=CCN1CC[C@@]2(C)c3cc(O)ccc3C[C@@H]1[C@@H]2C.Cl (racemic) [(±)-N-Allylnormetazocine hydrochloride]
Raw Signal [3]: 52910
Z-score [4]: -0.8812

O=C[C@H](Cl)[C@@H](O)[C@H](O)[C@H](O)CO [2-Chloro-2-deoxy-D-glucose]
Raw Signal [6]: 57775
Z-score [7]: 0.5297

CNC(=O)[C@H]1O[C@@H](n2cnc3c(N)ncnc32)[C@H](O)[C@@H]1O [5 -N-Methyl carboxamidoadenosine]
Raw Signal [3]: 66682
Z-score [8]: 1.544

Cl.NO [Hydroxylamine hydrochloride]
Raw Signal [3]: 61813
Z-score [8]: 1.35

CN/C(=N/CCSCc1nc[nH]c1C)NC#N [Cimetidine]
Raw Signal [6]: 62612
Z-score [7]: 0.8276

C[C@]12CC[C@@H](O)C[C@@H]1CC[C@@H]1[C@@H]2CC[C@]2(C)[C@@H](O)CC[C@@H]12 [5alpha-Androstane-3alpha,17beta-diol]
Raw Signal [3]: 54542
Z-score [4]: -0.5937

COc1cc2nc(N3CCN(C(=O)C4COc5ccccc5O4)CC3)nc(N)c2cc1OC (centres unmarked) [Doxazosin mesylate]
Raw Signal [6]: 57817
Z-score [7]: 0.5382

NC(C(=O)O)C(O)C(=O)O (racemic) [DL-threo-beta-hydroxyaspartic acid]
Raw Signal [3]: 64938
Z-score [8]: 1.984

O=C(O)c1cccnc1Nc1cccc(C(F)(F)F)c1 [Niflumic acid]
Raw Signal [3]: 47033
Z-score [4]: -1.237

CC1=C(C(=O)O)N2C(=O)[C@@H](NC(=O)[C@H](N)C3=CCC=CC3)[C@H]2SC1 [Cephradine]
Raw Signal [1]: 56353
Z-score [5]: -0.2748

OC[C@H]1O[C@@H](n2cnc3c(Nc4ccccc4)ncnc32)[C@H](O)[C@@H]1O [N6-Phenyladenosine]
Raw Signal [1]: 55025
Z-score [5]: -0.194

L-Methionine sulfoximine
Raw Signal: 58334
Z-score: 0.6621

O=C(O)/C(=C/c1c(C(=O)O)[nH]c2cc(Cl)cc(Cl)c12)c1ccccc1 [MDL 105,519]
Z-score: 0.03839

N#CC(C#N)=Cc1cc(O)c(O)c(O)c1 [Tyrphostin 25]
Raw Signal [3]: 46819
Z-score [4]: -1.788

Br.NCc1cc(O)no1 [Muscimol hydrobromide]
Raw Signal [1]: 54732
Z-score [2]: -0.08835

NC(Cc1ccc(Cl)cc1)C(=O)O (racemic) [(±)-p-Chlorophenylalanine]
Raw Signal [3]: 55203
Z-score [4]: -0.4773

Cl.NCCNC(=O)c1ccc(Cl)cc1 [Ro 16-6491 hydrochloride]
Raw Signal [6]: 60492
Z-score [7]: 0.8681

C=CCc1ccccc1OCC(O)CNC(C)C (centres unmarked) [Alprenolol hydrochloride]
Raw Signal [6]: 60855
Z-score [7]: 0.5181

S=C(NC1CCCCC1)N1CCC(c2cnc[nH]2)CC1 [Thioperamide maleate]
Raw Signal [1]: 54981
Z-score [5]: -0.2026

CN1C[C@H](O)[C@@H](O)[C@H](O)[C@H]1CO [N-Methyl-1-deoxynojirimycin]
Raw Signal [1]: 53171
Z-score [5]: -0.2054

C[C@](N)(Cc1ccc(O)c(O)c1)C(=O)O [L-alpha-Methyl DOPA]
Raw Signal [3]: 24071
Z-score [4]: -5.095

O=C(OCCN1CCOCC1)C1(c2ccccc2)CCCCC1 [PRE-084]
Raw Signal [1]: 55518
Z-score [2]: 0.1889

Nc1cc(N2CCCCC2)nc(N)[n+]1[O-] [Minoxidil]
Raw Signal [1]: 52091
Z-score [5]: -0.3869

COc1ccccc1N1CCN(CCCNc2c(C)c(=O)n(C)c(=O)n2C)CC1 [Urapidil, 5-Methyl-]
Raw Signal [6]: 62058
Z-score [7]: 1.172

Nc1cc(=O)[nH]c(N)n1 [2,6-Diamino-4-pyrimidinone]
Raw Signal [6]: 57244
Z-score [7]: 0.4218

5-Bromo-2 -deoxyuridine
Raw Signal: 57175
Z-score: -0.13

N=C(N)NC(=O)c1nc(Cl)c(N2CCCCCC2)nc1N [5-(N,N-hexamethylene)amiloride]
Raw Signal [1]: 56870
Z-score [5]: -0.1837

S(-)-DS 121 hydrochloride
Raw Signal [1]: 56472
Z-score [2]: 0.265

C[C@]12C=CC(=O)C=C1CC[C@H]1[C@@H]3C[C@@H](O)[C@](O)(C(=O)CO)[C@@]3(C)C[C@H](O)[C@@]12F [Triamcinolone]
Raw Signal [6]: 60096
Z-score [7]: 0.7912

O=c1cc(O)cc(/C=C/c2ccc(O)c(O)c2)o1 [Hispidin]
Raw Signal [3]: 48484
Z-score [4]: -1.357

CC(=O)O.NC(=NCCC[C@H](N)C(=O)O)NO [NG-Hydroxy-L-arginine acetate]
Raw Signal [1]: 53960
Z-score [5]: -0.2451

CCCN(CCC)CCc1ccc(O)c(O)c1 [Dipropyldopamine hydrobromide]
Raw Signal [3]: 52448
Z-score [4]: -0.5522

O=C(O)C1CCNCC1 [Isonipecotic acid]
Raw Signal [1]: 51826
Z-score [5]: -0.4314

CC(=O)Nc1nnc(S(N)(=O)=O)s1 [Acetazolamide]
Raw Signal [3]: 54920
Z-score [4]: -0.5272

CN1CCN(CCCN2c3ccccc3Sc3ccc(Cl)cc32)CC1 [Prochlorperazine dimaleate]
Raw Signal [6]: 58817
Z-score [7]: 0.5427

Brc1c(NC2=NCCN2)ccc2nccnc12 [UK 14,304]
Raw Signal: 53944
Z-score: -0.4041

CC1=C(CC(=O)O)c2cc(F)ccc2/C1=C\c1ccc(S(C)(=O)=O)cc1 [Sulindac sulfone]
Raw Signal [1]: 56423
Z-score [2]: 0.07756

CC(C)CN(C)c1nc(N)c(C(=O)N=C(N)N)nc1Cl [5-(N-Methyl-N-isobutyl)amiloride]
Raw Signal [1]: 57481
Z-score [2]: -0.0761

CCS(=O)(=O)Nc1cccc(C(=C2CCCCC2)c2cnc[nH]2)c1 [A-315456]
Raw Signal [1]: 57716
Z-score [2]: -0.03471

CN1C[C@@H](NS(=O)(=O)N(C)C)C[C@@H]2c3cccc4c3c(cn4C)C[C@H]21 [Mesulergine hydrochloride]
Raw Signal [1]: 53840
Z-score [5]: -0.093

Cl.NC1CCN(c2cccc(Cl)n2)CC1 [SR 57227A]
Raw Signal [3]: 53376
Z-score [4]: -0.5144

CCCCC1C(=O)N(c2ccccc2)N(c2ccccc2)C1=O [Phenylbutazone]
Z-score [5]: -0.2764

NC(CCCCCP(=O)(O)O)C(=O)O (racemic) [(±)-2-Amino-7-phosphonoheptanoic acid]
Raw Signal: 66212
Z-score: 1.462

Nc1nc(OCc2ccccc2)c2nc[nH]c2n1 [O6-benzylguanine]
Raw Signal [1]: 56623
Z-score [5]: -0.2272

CNCCc1c[nH]c2ccc(O)cc12.O=C(O)C(=O)O
Raw Signal [1]: 53556
Z-score [5]: -0.1407

CC[N+](C)(C)Cc1ccccc1Br [Bretylium tosylate]
Raw Signal [1]: 56921
Z-score [5]: -0.1747

CC(=O)SCC[N+](C)(C)C.[Cl-] [Acetylthiocholine chloride]
Raw Signal [1]: 58613
Z-score [2]: 0.1233

C[C@@H](N)[C@H]1CC[C@H](C(=O)Nc2ccncc2)CC1.Cl.Cl [Y-27632 dihydrochloride]
Raw Signal [1]: 53228
Z-score [5]: -0.3938

OCC1OC(n2cnc3ccccc32)C(O)C1O [D-ribofuranosylbenzimidazole]
Raw Signal [3]: 49673
Z-score [4]: -1.116

CCn1c(=O)c2nc(-c3ccccc3)[nH]c2n(CC)c1=O [1,3-Diethyl-8-phenylxanthine]
Raw Signal [1]: 56931
Z-score [5]: -0.173

Source: article PMC5706701, “Development of a homogenous high-throughput assay for inositol hexakisphosphate kinase 1 activity” (PLoS ONE, 2017)
